pIC50: −log10 of the molar value.
How the values were obtained:
IKKε = IKKε (Homo sapiens (Human), UniProt Q14164); assay: Lanthascreen TR-FRET kinase inhibition assay, IKKε; format: biochemical; conditions: 20 μM ATP (apparent Km), 2 nM kinase, 1 h
Outline: (§1)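 TR-FRET: terbium phosphospecific antibody detects phosphorylation of 400 nM fluorescein-IkBα peptide, 20 μM ATP, 20 °C, HEPES pH 7.5 with 3% DMSO. IKKε at 2 nM, 1 h reaction; TBK1 at 8 nM, 2.5 h reaction; started by kinase addition.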

TBK1 = TBK1 (Homo sapiens (Human), UniProt Q9UHD2); assay: Lanthascreen TR-FRET kinase inhibition assay, TBK1; format: biochemical; conditions: 20 μM ATP (apparent Km), 8 nM kinase, 2.5 h
Outline: as §1

TBK1, sequence (Q9UHD2 whole entry): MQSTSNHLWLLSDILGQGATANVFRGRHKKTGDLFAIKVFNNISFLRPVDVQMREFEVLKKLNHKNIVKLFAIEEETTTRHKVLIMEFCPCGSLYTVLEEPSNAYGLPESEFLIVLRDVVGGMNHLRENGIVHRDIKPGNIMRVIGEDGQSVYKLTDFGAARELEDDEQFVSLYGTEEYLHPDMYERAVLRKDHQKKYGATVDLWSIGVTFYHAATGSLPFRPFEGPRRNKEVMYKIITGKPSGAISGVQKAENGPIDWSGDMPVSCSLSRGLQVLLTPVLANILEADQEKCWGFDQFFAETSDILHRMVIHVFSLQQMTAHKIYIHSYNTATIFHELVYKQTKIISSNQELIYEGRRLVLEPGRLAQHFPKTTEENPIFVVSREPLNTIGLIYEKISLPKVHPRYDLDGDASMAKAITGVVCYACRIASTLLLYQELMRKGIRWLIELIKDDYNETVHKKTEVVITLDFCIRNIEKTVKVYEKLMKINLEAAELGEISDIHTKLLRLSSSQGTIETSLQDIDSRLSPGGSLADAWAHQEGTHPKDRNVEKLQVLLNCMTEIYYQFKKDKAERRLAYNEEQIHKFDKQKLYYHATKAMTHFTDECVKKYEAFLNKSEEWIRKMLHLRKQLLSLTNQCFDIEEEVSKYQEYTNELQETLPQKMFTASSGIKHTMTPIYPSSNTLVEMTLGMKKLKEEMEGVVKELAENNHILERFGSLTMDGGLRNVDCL
IKKε, sequence (Q14164 whole entry): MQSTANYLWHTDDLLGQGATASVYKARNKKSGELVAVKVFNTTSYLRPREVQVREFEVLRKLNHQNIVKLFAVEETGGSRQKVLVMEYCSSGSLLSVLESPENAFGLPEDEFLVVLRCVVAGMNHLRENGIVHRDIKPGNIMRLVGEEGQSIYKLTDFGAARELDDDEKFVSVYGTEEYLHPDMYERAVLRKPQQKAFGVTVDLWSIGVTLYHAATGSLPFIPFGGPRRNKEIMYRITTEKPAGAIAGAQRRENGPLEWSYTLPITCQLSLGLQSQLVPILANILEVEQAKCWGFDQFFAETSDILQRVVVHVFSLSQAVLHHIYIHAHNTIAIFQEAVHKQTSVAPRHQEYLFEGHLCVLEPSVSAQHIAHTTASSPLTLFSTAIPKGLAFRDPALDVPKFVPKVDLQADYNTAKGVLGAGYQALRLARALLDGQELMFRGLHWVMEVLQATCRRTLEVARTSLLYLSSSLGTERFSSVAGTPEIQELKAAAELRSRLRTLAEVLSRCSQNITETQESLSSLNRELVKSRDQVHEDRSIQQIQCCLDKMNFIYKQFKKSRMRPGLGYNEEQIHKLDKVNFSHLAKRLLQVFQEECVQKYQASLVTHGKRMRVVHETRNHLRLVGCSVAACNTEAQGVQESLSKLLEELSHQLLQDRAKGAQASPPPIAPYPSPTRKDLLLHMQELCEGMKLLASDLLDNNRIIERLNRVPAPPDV

## CC(C)N1CCN(CC(=O)Nc2ccc(Nc3nccc(-c4cnc(N5CC[C@H](F)C5)c(C#N)c4)n3)cn2)CC1 [DMX-23, N-(5-{4-[5-Cyano-6-((S)-3-fluoro-pyrrolidin-1-yl)-pyridin-3-yl]-pyrimidin-2-ylamino}-pyridin-2-yl)-2-(4-isopropyl-piperazin-1-yl)-acetamide]
IKKε
  pIC50: > 7.52
TBK1
  pIC50: > 7.52

## N#Cc1nc(-c2ccnc(Nc3ccc(CN4CC[C@H](F)C4)nc3)n2)ccc1N1CC[C@H](F)C1 [DMX-150, 3-((S)-3-Fluoro-pyrrolidin-1-yl)-6-{2-[6-((S)-3-fluoro-pyrrolidin-1-ylmethyl)-pyridin-3-ylamino]-pyrimidin-4-yl}-pyridine-2-carbonitrile]
IKKε
  pIC50: > 7.82
TBK1
  pIC50: > 7.82

## N#Cc1cc(-c2ccnc(Nc3cccc(=O)[nH]3)n2)cnc1N1CC[C@H](F)C1 [DMX-73, 2-((S)-3-Fluoro-pyrrolidin-1-yl)-5-[2-(6-oxo-1,6-dihydro-pyridin-2-ylamino)-pyrimidin-4-yl]-nicotinonitrile]
IKKε
  pIC50: > 6.00
TBK1
  pIC50: > 6.00

## CC(=O)Nc1ccc(Nc2nccc(-c3cnc(N[C@@H]4CCOC4)c(C#N)c3)n2)cn1 [DMX-113, N-[5-(4-{5-Cyano-6-[(R)-(tetrahydro-furan-3-yl)amino]-pyridin-3-yl}-pyrimidin-2-ylamino)-pyridin-2-yl]-acetamide]
IKKε
  pIC50: > 6.00
TBK1
  pIC50: > 6.00

## N#Cc1nc(-c2ccnc(Nc3ccc(CN4CCNC(=O)C4)nc3)n2)ccc1N1CC[C@H](F)C1 [DMX-156, 3-((S)-3-Fluoro-pyrrolidin-1-yl)-6-{2-[6-(3-oxo-piperazin-1-ylmethyl)-pyridin-3-ylamino]-pyrimidin-4-yl}-pyridine-2-carbonitrile]
IKKε
  pIC50: > 7.82
TBK1
  pIC50: > 7.82

## N#Cc1cc(-c2ccnc(Nc3ccc(N4CCOCC4)cc3)n2)cnc1N1CCCC1 [DMX-5, 5-[2-(4-Morpholin-4-yl-phenylamino)-pyrimidin-4-yl]-2-pyrrolidin-1-yl-nicotinonitrile]
IKKε
  pIC50: > 7.52
TBK1
  pIC50: > 7.82

## N#Cc1cc(-c2nc(Nc3ccc(CN4CCOCC4)nc3)ncc2F)cnc1N1CC[C@H](F)C1 [DMX-89, 5-[5-Fluoro-2-(6-morpholin-4-ylmethyl-pyridin-3-ylamino)-pyrimidin-4-yl]-2-((S)-3-fluoro-pyrrolidin-1-yl)-nicotinonitrile]
IKKε
  pIC50: > 7.52
TBK1
  pIC50: > 7.82

## Cn1cc(Nc2nccc(-c3cnc(N4CC[C@H](F)C4)c(C#N)c3)n2)cn1 [DMX-7, 2-((S)-3-Fluoro-pyrrolidin-1-yl)-5-[2-(1-methyl-1H-pyrazol-4-ylamino)-pyrimidin-4-yl]-nicotinonitrile]
IKKε
  pIC50: > 7.52
TBK1
  pIC50: > 7.52

## CN1CCC(NC(=O)c2ccc(Nc3ncc(F)c(-c4cnc(N5CC[C@H](F)C5)c(C#N)c4)n3)cc2)CC1 [DMX-28, 4-{4-[5-Cyano-6-((S)-3-fluoro-pyrrolidin-1-yl)-pyridin-3-yl]-5-fluoro-pyrimidin-2-ylamino}-N-(1-methyl-piperidin-4-yl)-benzamide]
IKKε
  pIC50: > 7.82
TBK1
  pIC50: > 7.82

## N#Cc1cc(-c2ccnc(Nc3cnn(C[C@H](O)CO)c3)n2)cnc1N1CCCC1 [DMX-38, 5-{2-[1-((S)-2,3-Dihydroxy-propyl)-1H-pyrazol-4-ylamino]-pyrimidin-4-yl}-2-pyrrolidin-1-yl-nicotinonitrile]
IKKε
  pIC50: > 7.00
TBK1
  pIC50: > 7.82

## COCCN(C)c1ccc(-c2ccnc(Nc3cnn(C)c3)n2)nc1C#N [DMX-155]
IKKε
  pIC50: > 6.00
TBK1
  pIC50: > 6.00

## CC(C)(O)CNc1ccc(Nc2nccc(-c3cnc(N4CC[C@H](F)C4)c(C#N)c3)n2)cn1 [DMX-22, 2-((S)-3-Fluoro-pyrrolidin-1-yl)-5-{2-[6-(2-hydroxy-2-methyl-propylamino)-pyridin-3-ylamino]-pyrimidin-4-yl}-nicotinonitrile]
IKKε
  pIC50: > 7.82
TBK1
  pIC50: > 7.52

## N#Cc1cc(-c2ccnc(Nc3cncc(NC(=O)CN4CCOCC4)c3)n2)cnc1N1CC[C@H](F)C1 [DMX-108, N-(5-{4-[5-Cyano-6-((S)-3-fluoro-pyrrolidin-1-yl)-pyridin-3-yl]-pyrimidin-2-ylamino}-pyridin-3-yl)-2-morpholin-4-yl-acetamide]
IKKε
  pIC50: > 7.00
TBK1
  pIC50: > 7.52

## N#Cc1cc(-c2ccnc(Nc3ccc(CN4CCOCC4)nc3)n2)cnc1N1CCC(CCC(N)=O)C1 (stereo not drawn) [DMX-162, 3-(1-{3-Cyano-5-[2-(6-morpholin-4-ylmethyl-pyridin-3-ylamino)-pyrimidin-4-yl]-pyridin-2-yl}-pyrrolidin-3-yl)-propionamide]
IKKε
  pIC50: > 7.52
TBK1
  pIC50: > 7.00

## COCCNc1cc(Nc2ncc(F)c(-c3cnc(NC4CC4)c(C#N)c3)n2)ccn1 [DMX-125, 2-Cyclopropylamino-5-{5-fluoro-2-[2-(2-methoxy-ethylamino)-pyridin-4-ylamino]-pyrimidin-4-yl}-nicotinonitrile]
IKKε
  pIC50: > 6.00
TBK1
  pIC50: > 7.00

## CN1CCN(C(=O)c2cccc(Nc3nccc(-c4cnc(N5CC[C@H](F)C5)c(C#N)c4)n3)c2)CC1 [DMX-6, 2-((S)-3-Fluoro-pyrrolidin-1-yl)-5-{2-[3-(4-methyl-piperazine-1-carbonyl)-phenylamino]-pyrimidin-4-yl}-nicotinonitrile]
IKKε
  pIC50: > 7.00
TBK1
  pIC50: > 7.52

## N#Cc1cc(-c2ccnc(Nc3ccc(NC(=O)CN4CC[C@H](F)C4)nc3)n2)cnc1N1CC[C@H](F)C1 [DMX-69, N-(5-{4-[5-Cyano-6-((S)-3-fluoro-pyrrolidin-1-yl)-pyridin-3-yl]-pyrimidin-2-ylamino}-pyridin-2-yl)-2-((S)-3-fluoro-pyrrolidin-1-yl)-acetamide]
IKKε
  pIC50: > 7.52
TBK1
  pIC50: > 7.00

## CC(N)C(=O)Nc1ccc(Nc2nccc(-c3cnc(N4CC[C@H](F)C4)c(C#N)c3)n2)cn1 (stereo partly drawn) [DMX-56, 2-Amino-N-(5-{4-[5-cyano-6-((S)-3-fluoro-pyrrolidin-1-yl)-pyridin-3-yl]-pyrimidin-2-ylamino)-pyridin-2-yl)-propionamide]
IKKε
  pIC50: > 7.52
TBK1
  pIC50: > 7.00

## N#Cc1nc(-c2ccnc(Nc3ccc(OCCN4CC[C@H](F)C4)nc3)n2)ccc1N1CC[C@H](O)C1 [DMX-148, 6-(2-{6-[2-((S)-3-Fluoro-pyrrolidin-1-yl)-ethoxy]-pyridin-3-ylamino}-pyrimidin-4-yl)-3-((S)-3-hydroxy-pyrrolidin-1-yl)-pyridine-2-carbonitile]
IKKε
  pIC50: > 7.00
TBK1
  pIC50: > 7.00

## N#Cc1nc(-c2ccnc(Nc3ccc(N4CCOCC4)cc3)n2)ccc1N1CCCC1 [DMX-58, 6-[2-(4-Morpholin-4-yl-phenylamino)-pyrimidin-4-yl]-3-pyrrolidin-1-yl-pyridine-2-carbonitrile]
IKKε
  pIC50: > 7.82
TBK1
  pIC50: > 7.82

## N#Cc1cc(-c2nc(Nc3ccnc(NC(=O)CN4CCOCC4)c3)ncc2F)cnc1NC1CC1 [DMX-124, N-{4-[4-(5-Cyano-6-cyclopropylamino-pyridin-3-yl)-5-fluoro-pyrimidin-2-ylamino]-pyridin-2-yl}-2-morpholin-4-yl-acetamide]
IKKε
  pIC50: > 6.00
TBK1
  pIC50: > 7.00

## N#Cc1cc(-c2ccnc(Nc3ccc(CN4CCOCC4)nc3)n2)cnc1NC1CCCC1 [DMX-139, 2-Cyclopentylamino-5-[2-(6-morpholin-4-ylmethyl-pyridin-3-ylamino)-pyrimidin-4-yl]-nicotinonitrile]
IKKε
  pIC50: > 7.00
TBK1
  pIC50: > 7.00

## N#Cc1cc(-c2nc(Nc3ccnc(NC(=O)CN4CCOCC4)c3)ncc2F)cnc1N1CCCOCC1 [DMX-94, N-{4-[4-(5-Cyano-6-[1,4]oxazepan-4-yl-pyridin-3-yl)-5-fluoro-pyrimidin-2-ylamino]-pyridin-2-yl}-2-morpholin-4-yl-acetamide]
IKKε
  pIC50: > 6.00
TBK1
  pIC50: > 7.00

## CC(C(N)=O)N(C)c1ncc(-c2ccnc(Nc3ccc(CN4CCOCC4)nc3)n2)cc1C#N (stereo not drawn) [DMX-135, 2-({3-Cyano-5-[2-(6-morpholin-4-ylmethyl-pyridin-3-ylamino)-pyrimidin-4-yl]-pyridin-2-yl}-methyl-amino)-propionamide]
IKKε
  pIC50: > 7.00
TBK1
  pIC50: > 7.00

## N#Cc1cc(-c2nc(Nc3ccc(NC(=O)CN4CCOCC4)nc3)ncc2F)cnc1N1CC[C@H](F)C1 [DMX-88, N-(5-{4-[5-Cyano-6-((S)-3-fluoro-pyrrolidin-1-yl)-pyridin-3-yl]-5-fluoro-pyrimidin-2-ylamino}-pyridin-2-yl)-2-morpholin-4-yl-acetamide]
IKKε
  pIC50: > 7.00
TBK1
  pIC50: > 7.00

## Cn1cc(Nc2nccc(-c3cnc(N[C@@H]4CCOC4)c(C#N)c3)n2)cn1 [DMX-116, 5-[2-(1-Methyl-1H-pyrazol-4-ylamino)-pyrimidin-4-yl]-2-[(R)-(tetrahydro-furan-3-yl)amino]-nicotinonitrile]
IKKε
  pIC50: > 6.00
TBK1
  pIC50: > 6.00

## N#Cc1cc(-c2ccnc(Nc3ccc(CN4CCNC(=O)C4)nc3)n2)cnc1N1CC[C@H](F)C1 [DMX-102, 2-((S)-3-Fluoro-pyrrolidin-1-yl)-5-{2-[6-(3-oxo-piperazin-1-ylmethyl)-pyridin-3-ylamino]-pyrimidin-4-yl}-nicotinonitrile]
IKKε
  pIC50: > 7.82
TBK1
  pIC50: > 7.82

## CO[C@H]1CCN(Cc2ccc(Nc3nccc(-c4cnc(N5CC[C@H](F)C5)c(C#N)c4)n3)cn2)C1 [DMX-97, 2-((S)-3-Fluoro-pyrrolidin-1-yl)-5-{2-[6-((S)-3-methoxy-pyrrolidin-1-ylmethyl)-pyridin-3-ylamino]-pyrimidin-4-yl}-nicotinonitrile]
IKKε
  pIC50: > 7.00
TBK1
  pIC50: > 7.52

## CNc1ncc(-c2ccnc(Nc3ccc(NC4CCN(C)CC4)nc3)n2)cc1C#N [DMX-119, 2-Methylamino-5-{2-[6-(1-methyl-piperidin-4-ylamino)-pyridin-3-ylamino]-pyrimidin-4-yl}-nicotinonitrile]
IKKε
  pIC50: > 6.00
TBK1
  pIC50: > 7.00

## Cc1nccn1CC(=O)Nc1ccc(Nc2nccc(-c3cnc(N4CC[C@H](F)C4)c(C#N)c3)n2)cn1 [DMX-128, N-(5-{4-[5-Cyano-6-((S)-3-fluoro-pyrrolidin-1-yl)-pyridin-3-yl]-pyrimidin-2-ylamino)-pyridin-2-yl)-2-(2-methyl-imidazol-1-yl)-acetamide]
IKKε
  pIC50: > 7.52
TBK1
  pIC50: > 7.52

— patent US9433622B2, “Pyrimidine compounds useful in the treatment of diseases mediated by IKKE and/or TBK1 mechanisms” (DOMAINEX LIMITED, priority 2013, dated 2016)
